Test results as given in patent US20250353873A1, “COMPOUNDS AND METHODS FOR MODULATING APOE EXPRESSION” (Ionis Pharmaceuticals, Inc., priority 2024, published 2025).
Strand notation (5' to 3'): a small letter for the sugar, then the base; units joined by * are phosphorothioate-linked, units joined directly phosphodiester-linked; [ ] holds rarer units or linkages, { } end groups; capitals alone tell only the bases. [ms] = mesyl phosphoramidate linkage; e = 2'-O-(2-methoxyethyl) (MOE); k = constrained ethyl (cEt); [5mC] = 5-methylcytosine; d = 2'-deoxy (DNA)

What was measured:
[1] = tested on: human APOE RNA; assay: Activity in APOE C57BL/6NTac-Apoeem7250 knock-in mice, single ICV bolus, 20 weeks (Example 13); assay type: in vivo; conditions: single ICV bolus 300 μg, 20 weeks post treatment, normalized to mouse Ppia
Procedure: Modified oligonucleotides described above were tested in the APOE C57BL/6NTac-Apoeem7250 knock-in mouse model described above.
APOE C57BL/6NTac-Apoeem7250 knock-in mice were divided into groups of 4 mice each. Each mouse received a single ICV bolus of 300 μg of modified oligonucleotide. A group of 2-4 mice received a single ICV bolus with PBS as a negative control.
Twenty weeks post treatment, mice were sacrificed and RNA was extracted from cortical brain tissue and spinal cord for quantitative real-time RT-PCR analysis of RNA expression of APOE using human primer probe set RTS3073 (described herein above). APOE RNA levels were normalized to mouse Ppia. Mouse Ppia was amplified using primer probe set m_cyclo24 (described herein above). Results are presented as percent human APOE RNA relative to the amount of human APOE RNA in PBS treated animals, (% control). Each experiment is identified in separate tables below.

[2] = tested on: human APOE RNA; assay: Dose-dependent inhibition of human APOE RNA in HepG2 cells, electroporation, 50,000 cells per well, RT-PCR normalized to GAPDH (Example 4, Tables 8-10); assay type: cell-based; conditions: HepG2, electroporation, 16-hour treatment
In short: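 HepG2 cells, 50,000 per well, electroporated with modified oligonucleotide at various concentrations. APOE RNA quantified by RT-PCR with human primer probe set RTS3073, normalized to GAPDH. Values are percent APOE RNA relative to untreated control cells.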

Substance: 1757570 (eA*e[5mC]eTeTkG*dG*dT*dG*dA*dA*dT*d[5mC]*dT*dT*dT*kAkTeT*eA*eA; antisense) [Compound 1757570]
- APOE RNA (% control) Cortex [1]: 64 % control
- APOE RNA (% control) Spinal Cord [1]: 48 % control
- APOE RNA (% UTC) ([2]; 5 nM): 154 % UTC
- APOE RNA (% UTC) ([2]; 82 nM): 151 % UTC
- APOE RNA (% UTC) ([2]; 205 nM): 62 % UTC
- APOE RNA (% UTC) ([2]; 512 nM): 26 % UTC
- APOE RNA (% UTC) ([2]; 1,280 nM): 42 % UTC
- APOE RNA (% UTC) ([2]; 3,200 nM): 22 % UTC
- APOE RNA (% UTC) ([2]; 8,000 nM): 18 % UTC
- APOE RNA (% UTC) ([2]; 20,000 nM): 18 % UTC
- IC50 [2]: 580 nM

Substance: 1757541: mixed MOE/cEt gapmer TTGGTGAATCTTTATTAA, sugar eeeekddddddddeeeee, linkages soossssssssssooss (eT*eTeGeG*kT*dG*dA*dA*dT*d[5mC]*dT*dT*dT*eAeTeT*eA*eA) [compound 1757541]
- APOE RNA (% control) Cortex [1]: 88 % control
- APOE RNA (% control) Spinal Cord [1]: 80 % control
- APOE RNA (% UTC) ([2]; 5 nM): 104 % UTC
- APOE RNA (% UTC) ([2]; 13 nM): 103 % UTC
- APOE RNA (% UTC) ([2]; 33 nM): 100 % UTC
- APOE RNA (% UTC) ([2]; 82 nM): 99 % UTC
- APOE RNA (% UTC) ([2]; 205 nM): 91 % UTC
- APOE RNA (% UTC) ([2]; 512 nM): 66 % UTC
- APOE RNA (% UTC) ([2]; 1,280 nM): 60 % UTC
- APOE RNA (% UTC) ([2]; 3,200 nM): 38 % UTC
- APOE RNA (% UTC) ([2]; 8,000 nM): 22 % UTC
- APOE RNA (% UTC) ([2]; 20,000 nM): 8 % UTC
- IC50 [2]: 1790 nM

Substance: 1757559: mixed MOE/cEt gapmer TTGGTGAATCTTTATTAA, sugar eeeekddddddddkeeee, linkages soossssssssssooss (eT*eTeGeG*kT*dG*dA*dA*dT*d[5mC]*dT*dT*dT*kAeTeT*eA*eA) [compound 1757559]
- APOE RNA (% control) Cortex [1]: 94 % control
- APOE RNA (% control) Spinal Cord [1]: 69 % control
- APOE RNA (% UTC) ([2]; 5 nM): 90 % UTC
- APOE RNA (% UTC) ([2]; 13 nM): 80 % UTC
- APOE RNA (% UTC) ([2]; 33 nM): 89 % UTC
- APOE RNA (% UTC) ([2]; 82 nM): 87 % UTC
- APOE RNA (% UTC) ([2]; 205 nM): 81 % UTC
- APOE RNA (% UTC) ([2]; 512 nM): 89 % UTC
- APOE RNA (% UTC) ([2]; 1,280 nM): 60 % UTC
- APOE RNA (% UTC) ([2]; 3,200 nM): 42 % UTC
- APOE RNA (% UTC) ([2]; 8,000 nM): 39 % UTC
- APOE RNA (% UTC) ([2]; 20,000 nM): 25 % UTC
- IC50 [2]: 3110 nM

Substance: 1757586 (eT*eTeGeGkT*dG*dA*dA*dT*d[5mC]*dT*dT*dT*dA*dT*kTkAeA*eA*e[5mC]; antisense) [Compound 1757586]
- APOE RNA (% control) Cortex [1]: 88 % control
- APOE RNA (% control) Spinal Cord [1]: 83 % control
- APOE RNA (% UTC) ([2]; 5 nM): 202 % UTC
- APOE RNA (% UTC) ([2]; 13 nM): 246 % UTC
- APOE RNA (% UTC) ([2]; 33 nM): 52 % UTC
- APOE RNA (% UTC) ([2]; 82 nM): 157 % UTC
- APOE RNA (% UTC) ([2]; 205 nM): 129 % UTC
- APOE RNA (% UTC) ([2]; 512 nM): 34 % UTC
- APOE RNA (% UTC) ([2]; 1,280 nM): 27 % UTC
- APOE RNA (% UTC) ([2]; 3,200 nM): 20 % UTC
- APOE RNA (% UTC) ([2]; 8,000 nM): 19 % UTC
- IC50 [2]: 500 nM

Substance: 1757582 (eT*eTeGkGkT*dG*dA*dA*dT*d[5mC]*dT*dT*dT*dA*dT*eTeAeA*eA*e[5mC]; antisense) [Compound 1757582]
- APOE RNA (% control) Cortex [1]: 62 % control
- APOE RNA (% control) Spinal Cord [1]: 44 % control
- APOE RNA (% UTC) ([2]; 5 nM): 87 % UTC
- APOE RNA (% UTC) ([2]; 13 nM): 107 % UTC
- APOE RNA (% UTC) ([2]; 33 nM): 72 % UTC
- APOE RNA (% UTC) ([2]; 82 nM): 92 % UTC
- APOE RNA (% UTC) ([2]; 205 nM): 70 % UTC
- APOE RNA (% UTC) ([2]; 512 nM): 64 % UTC
- APOE RNA (% UTC) ([2]; 1,280 nM): 29 % UTC
- APOE RNA (% UTC) ([2]; 3,200 nM): 12 % UTC
- APOE RNA (% UTC) ([2]; 8,000 nM): 37 % UTC
- APOE RNA (% UTC) ([2]; 20,000 nM): 9 % UTC
- IC50 [2]: 710 nM

Substance: 1757583 (eT*eTeGeGeT*dG*dA*dA*dT*d[5mC]*dT*dT*dT*dA*dT*kTeAeA*eA*e[5mC]; antisense) [Compound 1757583]
- APOE RNA (% control) Cortex [1]: 97 % control
- APOE RNA (% control) Spinal Cord [1]: 100 % control

Substance: 1779701 (e[5mC]*eTeT*kG*kG*dT[ms]dG[ms]dA[ms]dA[ms]dT*d[5mC]*dT*dT*dT*dA[ms]dT*eT*eA*eA*eA; antisense) [Compound 1779701]
- APOE RNA (% control) Cortex [1]: 56 % control
- APOE RNA (% control) Spinal Cord [1]: 24 % control
